Reference: PMC11536634, “Discovering a novel dual specificity tyrosine-phosphorylation-regulated kinase 1A (DYRK1A) inhibitor and its impact on tau phosphorylation and amyloid-β formation” (Journal of Enzyme Inhibition and Medicinal Chemistry, 2024)

Key:
Type in all cases: biochemical
CDC-like kinase 2 (CLK2) = CDC-like kinase 2 (CLK2) (Homo sapiens, UniProt P49760); assay: kinase panel ([…] human kinases), […] inhibition at […]
DYRK1A = DYRK1A (Homo sapiens, UniProt Q13627); assay: cell-free Z'-LYTE FRET kinase assay, dose-response; ATP competition
[1] = biological target: cyclin-dependent kinase 2 (CDK2) (Homo sapiens, UniProt P24941); assay: kinase panel ([…] human kinases), […] inhibition at […]
[2] = biological target: fibroblast growth factor receptor 1 (FGFR1) (Homo sapiens, UniProt P11362); assay: kinase panel ([…] human kinases), […] inhibition at […]
Chain of fibroblast growth factor receptor 1 (FGFR1) (P11362 22-822): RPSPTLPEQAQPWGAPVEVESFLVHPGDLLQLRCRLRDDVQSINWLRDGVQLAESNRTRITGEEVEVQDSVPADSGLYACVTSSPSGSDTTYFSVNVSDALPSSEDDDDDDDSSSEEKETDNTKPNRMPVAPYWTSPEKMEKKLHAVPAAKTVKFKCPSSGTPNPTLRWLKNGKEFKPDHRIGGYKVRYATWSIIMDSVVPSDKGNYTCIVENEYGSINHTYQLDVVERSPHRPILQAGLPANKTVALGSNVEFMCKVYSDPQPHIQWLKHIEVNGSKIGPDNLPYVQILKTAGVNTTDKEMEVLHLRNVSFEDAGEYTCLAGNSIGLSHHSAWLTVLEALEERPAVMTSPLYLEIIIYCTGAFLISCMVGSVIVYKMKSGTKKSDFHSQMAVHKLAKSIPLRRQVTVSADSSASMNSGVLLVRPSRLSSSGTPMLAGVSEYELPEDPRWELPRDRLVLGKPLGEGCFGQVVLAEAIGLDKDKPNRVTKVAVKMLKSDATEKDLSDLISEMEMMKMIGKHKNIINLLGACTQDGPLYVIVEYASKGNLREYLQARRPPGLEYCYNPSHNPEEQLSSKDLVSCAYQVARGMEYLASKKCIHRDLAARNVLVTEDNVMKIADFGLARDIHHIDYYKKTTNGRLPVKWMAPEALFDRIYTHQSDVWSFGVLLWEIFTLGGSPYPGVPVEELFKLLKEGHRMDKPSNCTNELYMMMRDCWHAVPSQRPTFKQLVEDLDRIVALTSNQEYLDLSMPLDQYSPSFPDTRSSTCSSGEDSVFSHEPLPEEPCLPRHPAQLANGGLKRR

Chain of CDC-like kinase 2 (CLK2) (P49760 whole entry): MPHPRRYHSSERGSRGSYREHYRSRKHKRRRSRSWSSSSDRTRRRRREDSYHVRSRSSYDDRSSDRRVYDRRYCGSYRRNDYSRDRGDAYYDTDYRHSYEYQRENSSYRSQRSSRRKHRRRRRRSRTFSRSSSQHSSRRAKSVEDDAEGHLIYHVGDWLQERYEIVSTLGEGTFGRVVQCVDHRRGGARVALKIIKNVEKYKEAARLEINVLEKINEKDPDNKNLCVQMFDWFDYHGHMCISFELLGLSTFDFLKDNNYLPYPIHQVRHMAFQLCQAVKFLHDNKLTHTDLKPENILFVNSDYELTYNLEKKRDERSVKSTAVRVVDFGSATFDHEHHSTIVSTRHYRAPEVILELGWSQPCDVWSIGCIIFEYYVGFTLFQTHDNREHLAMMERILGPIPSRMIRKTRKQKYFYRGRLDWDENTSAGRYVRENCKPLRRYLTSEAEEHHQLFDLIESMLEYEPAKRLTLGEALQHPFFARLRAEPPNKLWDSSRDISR

% inhibition at 3 μM (CDC-like kinase 2 (CLK2)): 89
IC50 (DYRK1A): 949 nM
% inhibition at 3 μM [1]: 54
% inhibition at 3 μM [2]: 69
Structure (SMILES): O=C1CC(c2c[nH]c3nccnc23)NN1 (stereo not shown) [compound 217908, NSC217908]
